“And” between values parts separate entries of the source, which are not always exact repeats. Equal values may be shown once.
Columns and labels:
Plasmodium coatneyi = test: In vivo pharmacodynamics (parasite clearance) in uncomplicated P. coatneyi-infected splenectomized rhesus monkey model
Procedure: Twenty-two adult colony-born, Indian-origin rhesus macaques (Macaca mulatta) naïve monkeys were splenectomized and recovered well more than 1 month prior to entering the study. […] Twenty-two animals were randomized to two experiments of 11 monkeys. […] The control monkeys received intramuscular quinine treatment and the experimental animals received intravenous artemisinin candidates.
Based on our previous model validation, blood smears were performed to detect malaria parasites starting prior to inoculation on day 0 and continued daily (0700–0800 h). The monkeys were physically restrained in the squeeze cage restraint apparatus and approximately 0.1–0.2 ml whole blood was collected from each monkey by lancet puncture of the lateral auricular vein. Thick and thin smears were made on the same microscope glass slide and subsequently fixed in methanol and stained with Giemsa. When the smears were positive, white blood cell count (WBC) and/or red blood cell count (RBC) were also performed using automated haematology analyzer Sysmex K800 to calculate parasite density. Haematocrits were checked as needed. At study days 6–12, additional blood samples were obtained from all animals in the afternoon (1500–1600 h) to monitor parasitaemia levels. Daily blood smears were continued until two consecutive days with negative smears. Then the smear monitoring schedule was reduced to two times weekly for 2 weeks and then weekly for 6 weeks after completion of the last treatment.
Blood smear staining and parasitaemia determination took about 2 h. […] The control monkey received quinine treatment and the ten experimental animals received intravenous artemisinin derivative candidate.
After a week wash-out and recovery period, P. coatneyi (1 mL of >50,000 parasitized RBCs per microlitre or 5 × 10^6 RBC with a 1 % parasitaemia) were inoculated from a donor monkey into all the monkeys. The treatment was initiated at day 6 after inoculation at a parasitaemia ≥3 % or >200,000 parasites μL^−1 when the cohort of animals was minimally symptomatic. Drugs were given for 3 days with a loading dose initially followed by ½ of the first dose on the 2nd and 3rd days.
Blood smear were collected once daily in the morning. Once positive parasitaemia was observed and reached 2000 parasites μL^−1, blood smears were collected twice, in the morning and afternoon. Blood for slides preparation were collected from ear for thick and thin smear preparation. Blood films on glass slides were air dried, fixed with 100 % methanol, stained with Giemsa, and read under ×100 magnification oil emersion for parasite determination.
First, a thick smear was performed for parasite detection by reading the slides at least 50 fields under ×100 magnification oil emersion.

P. falciparum clone (W2) = test: Ex vivo Plasmodium falciparum-based bioassay (BA) of rhesus plasma, effect kinetics (ePD) as DHA equivalents; format: cell-based
Procedure: Blood was collected for pharmacokinetic/pharmacodynamics (PK/PD) analysis after the first dose only due to rapid clearance of artemisinin derivatives. Heparinized blood was collected at 0, 5, 20, 40 min, 1, 3, and 6 h post-dose and plasma samples were separated within 2 h by centrifugation (1500g, 10 min). Aliquots of samples were made for simultaneous measurement by HPLC [16] and bioassay [14], and stored at −80 °C until analysis.
The plasma anti-malarial activities of the artemisinin derivatives were measured using a previously published method [14]. […] After centrifugation, the supernatant (100 µL) was transferred to a 96-well flat bottom plate. Twofold serial dilutions were then made using heat inactivated pooled control serum (human:rhesus = 1:1). A suspension of malaria (W2 clone) infected erythrocytes was added to each well. The microtitre plate was placed into a gas-tight plexiglass chamber, flushed with a gas mixture of 90 % CO2, 5 % O2, and 5 % N2, and placed into an incubator (37 °C). Following 24 h incubation, the plate was removed from the chamber and pulsed with [^3H]-hypoxanthine solution to each well and incubated for another 18–20 h before harvesting. The incorporation of [^3H]-hypoxanthine by the parasites in each well was determined by counting in a scintillation counter.
A dose–response curve for each plasma sample was constructed by plotting [^3H]-hypoxanthine uptake on the Y-axis against the corresponding dilution factor on the X-axis after logarithmic transformation. The dilution factor value that inhibits parasite growth by 50 % (DF50) of each plasma sample was determined.

[1] = rhesus monkey, in vivo
Procedure: (§1) These doses were chosen as the minimal effective doses (from previous model development and validation studies, unpublished data) and blood was collected for pharmacokinetic analysis. After a week wash-out and recovery period, P. coatneyi (1 mL of >50,000 parasitized RBCs per microlitre or 5 × 10^6 RBC with a 1 % parasitaemia) were inoculated from a donor monkey into all the monkeys. The treatment was initiated at day 6 after inoculation at a parasitaemia ≥3 % or >200,000 parasites μL^−1 when the cohort of animals was minimally symptomatic. Drugs were given for 3 days with a loading dose initially followed by ½ of the first dose on the 2nd and 3rd days.
(§2) Blood was collected for pharmacokinetic/pharmacodynamics (PK/PD) analysis after the first dose only due to rapid clearance of artemisinin derivatives. Heparinized blood was collected at 0, 5, 20, 40 min, 1, 3, and 6 h post-dose and plasma samples were separated within 2 h by centrifugation (1500g, 10 min). Aliquots of samples were made for simultaneous measurement by HPLC [16] and bioassay [14], and stored at −80 °C until analysis. All glassware was silanized before use with a 0.5 % aqueous solution (v/v) of Pierce Aquasil (Rockford, IL, USA) according to the manufacturer’s recommended procedure. Solid-phase extraction was performed on C-18 elution cartridge (3.0 ml, J.T. Baker Co.) using a VAC ELUTE SPS24 sample processing station (Analytichem International, Harbour City, CA, USA). The cartridge was preconditioned by sequential washing with 2.5 ml acetonitrile, 2.5 ml methanol and 2.5 ml water. One ml of distilled water was added to the cartridge before adding plasma sample (0.5 ml). Then, the cartridge was washed with 2.5 ml distilled water, 2.5 ml of 0.05 % H3PO4 (pH 4.5) and 2.5 ml of 20 % acetonitrile and completely dried by closing the vacuum for 15 min. The analytes were collected by eluting with 0.5 ml methanol three times and then with 0.5 ml 90:10 n-butyl chloride: ethyl acetate twice. The organic phases were pooled. The combined organic phases were then evaporated to dryness under a stream of nitrogen at room temperature. Extraction residues were reconstituted with 50:50 ethanol: water (0.3 ml), at least 16 h before injection. The injection volume was 100 µl for all samples.
(§3) The plasma concentration of parent drugs, AL and AS, and their primary metabolites, DHA and 2-hydroxyartelinate (OHAL) respectively, were measured by HPLC with electrochemical detection in reductive mode (HPLC-ECD) [16], which was the only method for artemisinin compounds then (Additional files 1 and 2).
(§4) HPLC with reductive electrochemical detection was performed using a model BAS 200B liquid chromatography (Bioanalytical Systems, Inc., West Lafayette, Indiana, USA). A Nova-Pak® C18 (3.9 × 150 mm, Waters Corporation, Milford, MA, USA) was used with 40 % acetonitrile in sodium acetate buffer (pH 3.6) as mobile phase. Detection was performed using a thin dual-layer glassy carbon electrode run in parallel mode at a potential of −1.0 V versus Ag/AgCl. The system was operated at the following temperatures: mobile phase 35 °C, column and detector oven 30 °C, cell 31 °C with the flow rate of 1.5 mL min^−1. Artemisinin (ART) was used as an internal standard. Samples were injected via Gilson model 231 XL sampling injector equipped with a 100 µL loop, a Gilson model 401 dilutor/pipettor, a sampler controller keypad (Gilson Medical Electronics, Middleton, WI, USA), and a Valco electrically actuated switching valve (Valco Instrument Co. Inc) was used. This system automatically deoxygenated and injected sample, which permits the high sample throughput associated with automated injection. Data were acquired and analysed using a Millennium^32 Chromatography Manager (Waters Corporation, Milford, MA, USA).

Plasmodium falciparum = system: Plasmodium falciparum; set-up: method as in Newton, 2000 [22]; details: Human, 2 mg kg^−1 IV AS, ref Newton, 2000 [22], cited from earlier work
[2] = set-up: method as in PMID 2631113; details: rats, 1 h following IV administration; cited from earlier work
in vivo = details: rhesus monkey; for AUC(0-t) / AUC(0-inf) / clearance / Cmax / half-life: iv, 8 mg/kg; for clearance: Cl
Procedure: as §1, §2, §3, §4

[3] = DHA equivalents, infected rhesus

For `C[C@H]1[C@H](OC(=O)CCC(=O)O)O[C@@H]2O[C@@]3(C)CC[C@H]4[C@H](C)CC[C@@H]1[C@@]24OO3` [IV AS, Artesunic acid], the “Parasite/µL, mean” value (Plasmodium coatneyi; 0.29 day post-dose) was 32,080 Parasite/µL, the “Parasite Reduction” value (Plasmodium coatneyi; 0.29 day post-dose, IV AS experiment (mean; IM QN = its control monkey)) was 88.6% and the “Parasite/µL, mean” value (Plasmodium coatneyi; 1.00 day post-dose) was 63,163 Parasite/µL. The “Parasite Reduction” value (Plasmodium coatneyi; 1.00 day post-dose, IV AS experiment) was 81.1%, the “Parasite/µL, mean” value (Plasmodium coatneyi; 1.29 day post-dose) was 9,364 Parasite/µL and the “Parasite Reduction” value (Plasmodium coatneyi; 1.29 day post-dose, IV AS experiment) was 97.1%. The “Parasite/µL, mean” value (Plasmodium coatneyi; 2.00 day post-dose) was 1,383 Parasite/µL, the “Parasite Reduction” value (Plasmodium coatneyi; 2.00 day post-dose, IV AS experiment) was 99.4% and the “Parasite/µL, mean” value (Plasmodium coatneyi; 2.29 day post-dose) was 345 Parasite/µL. The “Parasite Reduction” value (Plasmodium coatneyi; 2.29 day post-dose, IV AS experiment) was 99.8%, the “Parasite/µL, mean” value (Plasmodium coatneyi; 3.00 day post-dose) was 96 Parasite/µL and the “Parasite Reduction” value (Plasmodium coatneyi; 3.00 day post-dose, IV AS experiment) was 100.0%. For the same compound, the “Parasite Reduction” value (Plasmodium coatneyi; 3.29 day post-dose, IV AS experiment) was 99.9%, the “Parasite/µL, mean” value (Plasmodium coatneyi; 4.00 day post-dose) was 66 Parasite/µL and the “Parasite Reduction” value (Plasmodium coatneyi; 4.00 day post-dose, IV AS experiment) was 100.0%. The “Parasite/µL, mean” value (Plasmodium coatneyi; 4.29 day post-dose) was 87 Parasite/µL, the “Parasite Reduction” value (Plasmodium coatneyi; 4.29 day post-dose, IV AS experiment) was 100.0% and the “Parasite/µL, mean” value (Plasmodium coatneyi; 5.00 day post-dose) was 60 Parasite/µL. The “Parasite Reduction” value (Plasmodium coatneyi; 5.00 day post-dose, IV AS experiment) was 100.0%, the “Parasite/µL, mean” value (Plasmodium coatneyi; 5.29 day post-dose) was 31 Parasite/µL and the “Parasite Reduction” value (Plasmodium coatneyi; 5.29 day post-dose, IV AS experiment) was 100.0%. For the same compound, the “Parasite/µL, mean” value (Plasmodium coatneyi; 6.00 day post-dose) was 13 Parasite/µL, the “Parasite Reduction” value (Plasmodium coatneyi; 6.00 day post-dose, IV AS experiment) was 100.0% and the “Parasite/µL, mean” value (Plasmodium coatneyi; 6.29 day post-dose) was 23 Parasite/µL. For the same compound, the “Parasite Reduction” value (Plasmodium coatneyi; 6.29 day post-dose, IV AS experiment) was 100.0%, the “Parasite/µL, mean” value (Plasmodium coatneyi; 7.00 day post-dose) was 15 Parasite/µL and the “Parasite Reduction” value (Plasmodium coatneyi; 7.00 day post-dose, IV AS experiment) was 100.0%. The “Parasite/µL, mean” value (Plasmodium coatneyi; 8.00 day post-dose) was 4 Parasite/µL, the “Parasite Reduction” value (Plasmodium coatneyi; 8.00 day post-dose, IV AS experiment) was 100.0% and the “Parasite/µL, mean” value (Plasmodium coatneyi; 9.00 day post-dose) was 2 Parasite/µL. The “Parasite Reduction” value (Plasmodium coatneyi; 9.00 day post-dose, IV AS experiment) was 100.0%, the “Parasite/µL, mean” value (Plasmodium coatneyi; 10.00 day post-dose) was 0 Parasite/µL and the “Parasite Reduction” value (Plasmodium coatneyi; 10.00 day post-dose, IV AS experiment) was 100.0%. The “PCT of individual animals” value (Plasmodium coatneyi; IV AL: the only two determinable, IV AS: the two most rapid) was 4.0 days and 5.0 days, the “Recrudescence, median (range, n)” value (Plasmodium coatneyi; in vivo) was 13 (9–19, 10) days and the “R, Day (recrudescence day), mean” value (Plasmodium coatneyi; n 2 IV AL, n 10 IV AS) was 13 days. The PC50 (Plasmodium coatneyi; range in evaluable animals (4 of 8 IV AL, 3 of 10 IV AS)) was 0.32 to 5.88 h, the “Median PCT of the remaining eight monkeys” value (Plasmodium coatneyi; without the two most rapid) was 8.0 days and the “Antimalarial activity expressed as DHA equi., mean” value (“Antimalarial activity expressed” for short) (P. falciparum clone (W2); 0.08 h, healthy rhesus) was 17.94 µmol/L. For the same compound, the “Antimalarial activity expressed” value (P. falciparum clone (W2); 0.08 h, infected rhesus) was 22.45 µmol/L, the “Antimalarial activity expressed” value (P. falciparum clone (W2); 0.33 h, healthy rhesus) was 5.77 µmol/L and the “Antimalarial activity expressed” value (P. falciparum clone (W2); 0.33 h, infected rhesus) was 4.28 µmol/L. The “Antimalarial activity expressed” value (P. falciparum clone (W2); 0.67 h, healthy rhesus) was 3.16 µmol/L, the “Antimalarial activity expressed” value (P. falciparum clone (W2); 0.67 h, infected rhesus) was 3.19 µmol/L and the “Antimalarial activity expressed” value (P. falciparum clone (W2); 1.0 h, healthy rhesus) was 1.75 µmol/L. For the same compound, the “Antimalarial activity expressed” value (P. falciparum clone (W2); 1.0 h, infected rhesus) was 1.58 µmol/L, the “Antimalarial activity expressed” value (P. falciparum clone (W2); 3.0 h, healthy rhesus) was 0.22 µmol/L and the “Antimalarial activity expressed” value (P. falciparum clone (W2); 3.0 h, infected rhesus) was 0.12 µmol/L. The “Antimalarial activity expressed” value (P. falciparum clone (W2); 6.0 h, healthy rhesus) was 0 µmol/L, the “Antimalarial activity expressed” value (P. falciparum clone (W2); 6.0 h, infected rhesus) was 0 µmol/L and the “AUC0–20, ePD” value (P. falciparum clone (W2); [3]) was 242 µM·min. For the same compound, the “AUC0–∞, ePD” value (P. falciparum clone (W2); [3]) was 485 µM·min, the “Bioactivity %AUC20” value (P. falciparum clone (W2); mean, healthy rhesus) was 48.3% and the “Bioactivity Cl” value (P. falciparum clone (W2); mean, healthy rhesus) was 3.07 L hr^-1 kg ^-1. The “Bioactivity %AUC20” value (P. falciparum clone (W2); mean, infected rhesus) was 55.0%, the “Bioactivity (DHA equi.) AUC(0-inf)” value (P. falciparum clone (W2); mean, infected rhesus) was 476 (346–607) µmole min L^-1 and the “Bioactivity Cl” value (P. falciparum clone (W2); mean, infected rhesus) was 3.18 (2.25–4.11) L hr^-1 kg ^-1. For the same compound, the “Bioactivity Cl” value (P. falciparum clone (W2); mean, infected rhesus, listed as I.V. AS/Na) was 3.18 L hr^-1 kg ^-1, the “t1/2, metabolite (M)” value [1] was 31.1 min and the Cl ([1]; iv, 8 mg/kg) was 4.38 L hr^-1 kg ^-1. The “AUC (ePD)” value (Plasmodium falciparum; mean (95 % CI)) was 636 (524–748) µmol min L^−1, the “Cl (ePD)” value (Plasmodium falciparum) was 0.83 (0.70–0.96) L h^−1 kg^−1 and the tissue levels [2] was “high levels of AS were found in brain, fat, intestine and serum”. It also gave a concentration at 1 h (in vivo; Plasma concentration, mean) of 0.05 µM, a concentration at 3 h (in vivo; Plasma concentration, mean) of 0 nM and a concentration at 6 h (in vivo; Plasma concentration, mean) of 0 nM. It also gave an AUC(0-t) (in vivo; AUC 0-20) of 4.78 µM·h, an AUC(0-t) (in vivo; AUC0–20, parent compound (P)) of 4.8 µM·h and an AUC(0-t) (in vivo; AUC0–20, parent drug) of 4.8 µM·h. For the same compound, the AUC(0-inf) (in vivo; AUC0–∞, parent compound (P)) was 4.8 µM·h, the AUC(0-inf) (in vivo; AUC0–∞, parent drug) was 4.8 µM·h and the AUC(0-inf) (in vivo; AUC(0-inf)) was 5.2 µM·h. For the same compound, the clearance (in vivo) was 78.3 mL/min/kg, the clearance (in vivo; parent) was 72.3 mL/min/kg and the Cmax (in vivo; parent compound (P)) was 28.2 µM. The Cmax (in vivo; parent drug) was 28.2 µM, the half-life (in vivo; t1/2, parent compound (P)) was 3.47 min and the half-life (in vivo; t 1/2, z) was 4.17 min.

From PMC5011932, “Comparative pharmacokinetics and pharmacodynamics of intravenous artelinate versus artesunate in uncomplicated Plasmodium coatneyi-infected rhesus monkey model” (Malaria Journal, 2016)
